We go through 27 compounds from US9102648B1, “Bioavailable diacylhydrazine ligands for modulating the expression of exogenous genes via an ecdysone receptor complex” (Intrexon Corporation, priority 2003, dated 2015).

Like-named read-outs stand apart in the source and are kept apart here.

The data set concerns the target T1, Bombyx mori EcR (VP16 fusion, CVBE switch construct) (Bombyx mori, UniProt P49881).
T1 sequence (P49881 86-606): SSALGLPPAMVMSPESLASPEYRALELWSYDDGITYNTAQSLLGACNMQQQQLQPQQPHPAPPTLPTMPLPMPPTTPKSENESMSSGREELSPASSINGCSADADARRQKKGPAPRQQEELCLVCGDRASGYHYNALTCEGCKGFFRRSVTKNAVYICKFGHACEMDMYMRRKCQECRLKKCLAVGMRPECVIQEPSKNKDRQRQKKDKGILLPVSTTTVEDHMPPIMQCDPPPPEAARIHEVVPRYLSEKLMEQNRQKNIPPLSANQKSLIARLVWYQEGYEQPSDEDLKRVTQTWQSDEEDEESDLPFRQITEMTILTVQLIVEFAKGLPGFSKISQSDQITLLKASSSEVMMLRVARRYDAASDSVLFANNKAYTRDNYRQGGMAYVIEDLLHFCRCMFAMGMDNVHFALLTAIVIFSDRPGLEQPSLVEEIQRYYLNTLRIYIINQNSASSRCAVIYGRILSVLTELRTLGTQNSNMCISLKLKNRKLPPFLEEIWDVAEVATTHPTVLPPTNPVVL
T1 sequence (P19793 1-462 partner): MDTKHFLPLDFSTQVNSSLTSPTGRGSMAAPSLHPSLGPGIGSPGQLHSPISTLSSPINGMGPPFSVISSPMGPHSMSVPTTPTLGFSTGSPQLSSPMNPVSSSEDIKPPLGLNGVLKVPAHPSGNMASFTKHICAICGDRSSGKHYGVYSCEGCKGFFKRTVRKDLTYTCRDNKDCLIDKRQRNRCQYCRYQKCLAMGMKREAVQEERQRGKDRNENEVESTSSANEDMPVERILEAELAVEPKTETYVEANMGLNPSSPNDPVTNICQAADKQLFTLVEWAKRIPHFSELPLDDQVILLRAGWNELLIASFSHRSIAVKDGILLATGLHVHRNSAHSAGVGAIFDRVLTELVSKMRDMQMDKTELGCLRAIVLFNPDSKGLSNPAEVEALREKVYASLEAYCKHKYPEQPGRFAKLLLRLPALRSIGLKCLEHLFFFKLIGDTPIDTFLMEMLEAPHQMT
Put plainly: Z3 Assay (HEK-293 cells with CVBE and 6XEcRE LacZ, β-galactosidase reporter). The note with it: for Fold Induction, Z3 Assay, 3.3 uM: 3.3 uM ligand; for Fold Induction, Z3 Assay, 3.3 uM / Fold Induction, Z3 Assay, 33 uM: ligand treated / DMSO treated cells; for Fold Induction, Z3 Assay, 33 uM: 33 uM ligand; for Z3 assay Rel Max FI: maximum fold induction at any concentration relative to that of GS-E ligand; for fold induction at 3.3 µM: HEK293, read-out: Fold Induction, Z3 Assay, 3.3 uM; for fold induction at 33 µM: HEK293, read-out: Fold Induction, Z3 Assay, 33 uM.

Where [1] appears, read: read-out: Z3 assay EC50, HEK-293 Z3 cells, β-galactosidase reporter, average of two wells.

Regarding `COc1cccc(C(=O)NN(C(=O)c2cc(C)cc(C)c2)C(C)(C)C)c1N` [RG-115378], where the note is “average of two wells”, the “Fold Induction, Z3 Assay, 3.3 uM” value is 488 and the “Fold Induction, Z3 Assay, 33 uM” value is 1464. In addition, the “Z3 assay Rel Max FI” value (HEK-293 Z3 cells) stood at 0.947. For the same compound, the 50% effective concentration (EC50) under setting [1] was found to be 324 nM.

In the case of `COc1cccc(C(=O)N(NC(=O)c2ccc3c(c2C)OCCO3)C(C)(C)C)c1` [RG-100360], under “average of two wells”, the “Fold Induction, Z3 Assay, 3.3 uM” value came to 870 and the “Fold Induction, Z3 Assay, 33 uM” value was found to be 891. For the same compound, where the note is “HEK-293 Z3 cells”, the “Z3 assay Rel Max FI” value came to 1.073. Under setting [1], the EC50 stood at 257 nM.

Turning to `CCc1c(C(=O)NN(C(=O)c2ccccc2)C(C)(C)C)ccc2c1OCOC2` [RG-115046], for the setting “average of two wells”, the “Fold Induction, Z3 Assay, 33 uM” value came out at 754. Further, under setting [1], the EC50 was found to be 3550 nM.

Turning to `CCc1c(C(=O)NN(C(=O)c2ccc(Cl)cc2OC)C(C)(C)C)ccc2c1OCO2` [RG-115085], the “Fold Induction, Z3 Assay, 33 uM” value (average of two wells) was found to be 627. In addition, the EC50 under setting [1] is 195 nM.

`CCc1c(C(=O)NN(C(=O)c2cccc(OC)c2)C(C)(C)C)ccc2c1OCCO2` [RG-100691]: where the note is “average of two wells”, the “Fold Induction, Z3 Assay, 3.3 uM” value was found to be 843 and the “Fold Induction, Z3 Assay, 33 uM” value is recorded as 565. Further, under “HEK-293 Z3 cells”, the “Z3 assay Rel Max FI” value is 0.945. Besides, the EC50 under setting [1] turned out to be 257 nM.

`CCc1c(OC)cccc1C(=O)NN(C(=O)c1cc(C)cc(C)c1)C(C)(C)CO` [RG-115143]: where the note is “average of two wells”, the “Fold Induction, Z3 Assay, 3.3 uM” value was determined as 111 and the “Fold Induction, Z3 Assay, 33 uM” value came to 1045. Also, the “Z3 assay Rel Max FI” value (HEK-293 Z3 cells) came to 0.844. Also, under setting [1], the EC50 stood at 7410 nM.

As to `Cc1ccc([N+](=O)[O-])c(C(=O)N(NC(=O)c2ccc3c(c2C)CCCO3)C(C)(C)C)c1` [RG-115664], under “average of two wells”, the “Fold Induction, Z3 Assay, 3.3 uM” value was 209 and the “Fold Induction, Z3 Assay, 33 uM” value was found to be 620. The “Z3 assay Rel Max FI” value (HEK-293 Z3 cells) was 0.846. Moreover, the EC50 under setting [1] turned out to be 126 nM.

With `CCC(N(NC(=O)c1cccc(OC)c1C)C(=O)c1cc(OC)c(C)c(OC)c1)C(C)(C)C` (stereo not shown) [RG-115820, 3,5-dimethoxy-4-methyl-benzoic acid N-(1-ethyl-2,2-dimethyl-propyl)-N′-(3-methoxy-2-methyl-benzoyl)-hydrazide], the response was half-maximal at 203 nM (EC50), the fold induction at 3.3 µM amounted to 1410 and the fold induction at 33 µM came to 701. For the setting “HEK-293 Z3 cells”, the “Z3 assay Rel Max FI” value came out at 0.887.

For `CCc1c(OC)cccc1C(=O)NN(C(=O)c1cc(OC)c(C)c(OC)c1)C(CC)C(C)(C)C` (stereo not shown) [RG-115831], where the note is “average of two wells”, the “Fold Induction, Z3 Assay, 3.3 uM” value was found to be 1481 and the “Fold Induction, Z3 Assay, 33 uM” value was found to be 544. For the same compound, the “Z3 assay Rel Max FI” value (HEK-293 Z3 cells) was 0.937. In addition, under setting [1], the EC50 turned out to be 102 nM.

Consider `COc1ccc(OC)c(C(=O)N(NC(=O)c2cccc(C)c2C)C(C)(C)C)c1` [RG-100763], for which, where the note is “average of two wells”, the “Fold Induction, Z3 Assay, 33 uM” value was 151. Besides, the EC50 under setting [1] is 2140 nM.

Consider `CCc1c(OC)cccc1C(=O)NN(C(=O)c1cc(C)cc(C)c1)C(C)(C)C=NNC(=O)C(N)=O` [RG-115597, oxamic carbazide of 2-ethyl-3-methoxy-benzoic acid N′-(3,5-dimethyl-benzoyl)-N′-(1,1-dimethyl-2-oxo-ethyl)-hydrazide], for which, for the setting “average of two wells”, the “Fold Induction, Z3 Assay, 33 uM” value was 942.

As to `Cc1c(C(=O)NN(C(=O)c2ccc(F)cc2)C(C)(C)C)ccc2c1OCO2` [RG-100448], the “Fold Induction, Z3 Assay, 33 uM” value (average of two wells) turned out to be 423. In addition, the EC50 under setting [1] was determined as 2820 nM.

For the compound `CCc1c(OC)cccc1C(=O)NN(C(=O)c1cc(Cl)ccc1[N+](=O)[O-])C(C)(C)C` [RG-115257], for the setting “average of two wells”, the “Fold Induction, Z3 Assay, 3.3 uM” value turned out to be 297 and the “Fold Induction, Z3 Assay, 33 uM” value is recorded as 691. For the same compound, the “Z3 assay Rel Max FI” value (HEK-293 Z3 cells) was 0.885. The EC50 under setting [1] came to 204 nM.

As to `CCc1c(C(=O)NN(C(=O)c2ccc(F)c(C(F)(F)F)c2)C(C)(C)C)ccc2c1OCCO2` [RG-115280], where the note is “average of two wells”, the “Fold Induction, Z3 Assay, 33 uM” value worked out at 376.

On to `COc1cccc(C(=O)NN(C(=O)c2cccc(C)c2)C(C)(C)C)c1C` [RG-100694], for which, where the note is “average of two wells”, the “Fold Induction, Z3 Assay, 3.3 uM” value is 1294 and the “Fold Induction, Z3 Assay, 33 uM” value is reported as 1288. Also, the “Z3 assay Rel Max FI” value (HEK-293 Z3 cells) worked out at 1.157. Moreover, under setting [1], the EC50 amounted to 389 nM.

Turning to `CCCC(N(NC(=O)c1cccc(OC)c1CC)C(=O)c1cc(C)cc(C)c1)C(C)(C)C` (stereo not shown) [RG-115830], for the setting “average of two wells”, the “Fold Induction, Z3 Assay, 3.3 uM” value was found to be 1604 and the “Fold Induction, Z3 Assay, 33 uM” value is recorded as 983. Under “HEK-293 Z3 cells”, the “Z3 assay Rel Max FI” value is reported as 1.020. The EC50 under setting [1] came to 45 nM.

`CCc1ccc(C(=O)NN(C(=O)c2cc(C)cc(C)c2)C(C)(C)C)cc1` [RG-102125] returned an EC50 of 174 nM.

As for `CCOC(=O)C(C)(C)N(NC(=O)c1cccc(OC)c1CC)C(=O)c1cc(C)cc(C)c1` [RG-115025, 2-[N-(3,5-dimethyl-benzoyl)-N′-(2-ethyl-3-methoxy-benzoyl)-hydrazino]-2-methyl-propionic acid ethyl ester], the response was half-maximal at 347 nM (EC50), the fold induction at 3.3 µM is 269 and the fold induction at 33 µM amounted to 489. Under “HEK-293 Z3 cells”, the “Z3 assay Rel Max FI” value was 0.385.

On to `COc1ccccc1C(=O)N(NC(=O)c1ccc2c(c1C)CCCO2)C(C)(C)C` [RG-115102], for which, where the note is “average of two wells”, the “Fold Induction, Z3 Assay, 3.3 uM” value is listed as 88 and the “Fold Induction, Z3 Assay, 33 uM” value is 865. Moreover, the “Z3 assay Rel Max FI” value (HEK-293 Z3 cells) came out at 0.858. The EC50 under setting [1] turned out to be 139 nM.

As to `COc1ccccc1C(=O)N(NC(=O)c1ccc2c(c1)OCCO2)C(C)(C)C` [RG-100492], the “Fold Induction, Z3 Assay, 33 uM” value (average of two wells) is listed as 143. Also, the EC50 under setting [1] is 8130 nM.

For `CCc1c(OC)cccc1C(=O)NN(C(=O)c1ccc2c(c1)OCO2)C(C)(C)C` [RG-100699], the “Fold Induction, Z3 Assay, 33 uM” value (average of two wells) was found to be 415. For the same compound, the EC50 under setting [1] amounted to 2090 nM.

As for `CCc1c(C(=O)NN(C(=O)c2cc(Cl)nc(Cl)c2)C(C)(C)C)ccc2c1OCCO2` [RG-115297], for the setting “average of two wells”, the “Fold Induction, Z3 Assay, 3.3 uM” value is listed as 443 and the “Fold Induction, Z3 Assay, 33 uM” value amounted to 604. For the setting “HEK-293 Z3 cells”, the “Z3 assay Rel Max FI” value worked out at 0.872. Further, the EC50 under setting [1] came out at 66 nM.

As for `CC(O)c1ccc(C(=O)NN(C(=O)c2cc(F)cc(F)c2)C(C)(C)C)cc1` (stereo not shown) [RG-100342], the “Fold Induction, Z3 Assay, 33 uM” value (average of two wells) came out at 427. In addition, the EC50 under setting [1] was determined as 10200 nM.

Take `CCc1c(C(=O)NN(C(=O)c2cc(F)ccc2F)C(C)(C)C)ccc2c1OCCO2` [RG-115508]: under “average of two wells”, the “Fold Induction, Z3 Assay, 3.3 uM” value was 199 and the “Fold Induction, Z3 Assay, 33 uM” value was 680. Moreover, the “Z3 assay Rel Max FI” value (HEK-293 Z3 cells) amounted to 0.787. Moreover, under setting [1], the EC50 is 537 nM.

For `Cc1ccc(F)c(C(=O)N(NC(=O)c2ccc3c(c2C)CCCO3)C(C)(C)C)c1` [RG-115499], under “average of two wells”, the “Fold Induction, Z3 Assay, 3.3 uM” value is 173 and the “Fold Induction, Z3 Assay, 33 uM” value amounted to 641. The “Z3 assay Rel Max FI” value (HEK-293 Z3 cells) stood at 0.954. Moreover, the EC50 under setting [1] came to 170 nM.

Consider `CCc1c(OC)cccc1C(=O)NN(C(=O)c1cc(C)cc(C)c1)C(C)(C)C=NCCO` [RG-115511], for which, under “average of two wells”, the “Fold Induction, Z3 Assay, 3.3 uM” value is 10 and the “Fold Induction, Z3 Assay, 33 uM” value was determined as 570. Also, the “Z3 assay Rel Max FI” value (HEK-293 Z3 cells) is 0.66. Moreover, the EC50 under setting [1] was found to be 39000 nM.

As to `Cc1c(C(=O)NN(C(=O)c2cc(F)cc(F)c2)C(C)(C)C)ccc2c1CCCO2` [RG-115207], for the setting “average of two wells”, the “Fold Induction, Z3 Assay, 3.3 uM” value amounted to 354 and the “Fold Induction, Z3 Assay, 33 uM” value is given as 508. Moreover, under “HEK-293 Z3 cells”, the “Z3 assay Rel Max FI” value came to 0.923. Besides, the EC50 under setting [1] came out at 257 nM.
